Assay: SOD-like activity and IC50, chemiluminometric method (PHOTOCHEM, set FAT Berlin)
Assay type: biochemical
Conditions: fytomelanin with 10^19 spin/g
Description: To determine the SOD-like activity a chemiluminometric method using the chemiluminometer PHOTOCHEM was used, where the set FAT, Berlin for the SOD activity was used for the determination. The measurements were performed with the measuring time of 3 minutes, and the area integral of the chemiluminiscent curve was recorded. The value was recalculated to the unit SOD activity (by weight), and it represents 0.2 of the SOD activity.

-log IC50: 8.064
Substance: SOD: superoxide dismutase, molecular weight 32000, reference enzyme
% SOD activity (relative to SOD = 100): 100.00%

Reference: patent US6576268B2, “Biologically active fraction of vegetable melanin, process for its production and its use” (priority 1998, dated 2003)
